# Measurements: US20050132438A1, “Novel monocotylednous plant genes and uses thereof” (priority 2000, published 2005)
# Tested on: wheat NIM1 homologue mRNA transcripts
# Test: RNA gel blot of wheat RNA probed with the KL1/KL2 PCR product of the wheat NIM1 homologue
# Type: in vivo
# Settings: polyA+ RNA from leaf tissue of young wheat plants, BTH-treated for 24 h
# Text: The PCR product from wheat genomic DNA that is obtained with PCR primers KL1 and KL2 (SEQ ID NO:3 and SEQ ID NO:4, respectively) is used to probe gel blots of wheat RNA. […] The smaller transcript corresponds to the size detected in total RNA. […] The wheat “NIM loop”-described above is also used as a probe.
structure (smiles),measurement,value
"CSC(=O)c1cccc2nnsc12 [BTH, benzo(1,2,3)thiadiazole-7-carbothioic acid S-methyl ester]","abundance of the two NIM1 homologue transcripts, BTH-treated versus untreated plants",equal abundance
